Reference: ChEMBL document CHEMBL3044600 (Biochem Syst Ecol, 2008)
In brackets after ≈: the same amount, converted by molar mass. Activity calls are given as the source filed them. No cut-off for these calls is given here.

Columns and labels:
[1] = tested on: Lactuca sativa; test: Phytotoxicity against Lactuca sativa var. Carrascoy (lettuce) assessed as inhibition of seed germination at 50 ug/cm2 after 24 hr; format: functional, organism-based
[2] = tested on: Spodoptera littoralis; test: Antifeedant activity against Spodoptera littoralis L6 larvae assessed as food consumption level orally dosed with 40 ug after 72 hr relative to untreated control; format: functional
[3] = tested on: Rhopalosiphum padi; test: Antifeedant activity against Rhopalosiphum padi adults fed on compound treated Hordeum vulgare annuum leaves assessed as feeding level at 50 ug/cm2 (reference value: 47 to 64%); format: functional
[4] = tested on: Spodoptera littoralis; test: Antifeedant activity against Spodoptera littoralis L6 larvae assessed as biomass gain orally dosed with 40 ug after 72 hr relative to untreated control; format: functional
[5] = tested on: Leptinotarsa decemlineata; test: Antifeedant activity against Leptinotarsa decemlineata adults fed on compound treated Capsicum annuum leaves assessed as inhibition of feeding; format: functional, organism-based
[6] = tested on: Myzus persicae; test: Antifeedant activity against Myzus persicae (green peach aphid) adults fed on compound treated […] annuum leaves assessed as feeding level at 50 ug/cm2 (reference value: 43 to 70%); format: functional
[7] = tested on: Spodoptera littoralis; test: Antifeedant activity against Spodoptera littoralis sixth-instar larvae fed on compound treated Solanum tuberosum leaves assessed as inhibition of feeding; format: functional, organism-based
[8] = tested on: Lactuca sativa; test: Phytotoxicity against Lactuca sativa var. Carrascoy (lettuce) assessed as inhibition of radicle length at 50 ug/cm2 after 24 to 144 hr; format: functional
[9] = tested on: Lactuca sativa; test: Phytotoxicity against Lactuca sativa var. Carrascoy (lettuce) assessed as inhibition of seed germination at 50 ug/cm2 after 48 hr; format: functional, organism-based
[10] = Toxicity against Spodoptera frugiperda (fall armyworm) Sf9 cells by MTT assay; format: cell-based
[11] = tested on: Lactuca sativa; test: Phytotoxicity against Lactuca sativa var. Carrascoy (lettuce) assessed as inhibition of seed germination at 50 ug/cm2 up to 144 hr; format: functional, organism-based
[12] = Toxicity against Cricetulus griseus CHO (Chinese hamster ovary) cell by MTT assay; format: cell-based; conditions: CHO cells
[13] = tested on: Lactuca sativa; test: Phytotoxicity against Lactuca sativa var. Carrascoy (lettuce) assessed as inhibition of seed germination at 50 ug/cm2 after 72 hr; format: functional, organism-based
[14] = tested on: Lactuca sativa; test: Phytotoxicity against Lactuca sativa var. Carrascoy (lettuce) assessed as inhibition of seed germination at 50 ug/cm2 after 96 hr; format: functional, organism-based

Compound	inhibition [1]	Activity [2]	Activity [3]	Activity [4]	EC50 [5]	Activity [6]	EC50 [7]	inhibition at 50 µg/cm2 [8]	inhibition [9]	EC50 [10]	inhibition [11]	EC50 [12]	inhibition [13]	inhibition [14]
C/C=C1\C[C@@H](C)[C@](O)(CO)C(=O)OCC2=CCN3CC[C@@H](OC1=O)[C@@H]23 (stereo in doubt; 7)	Active	–	–	–	–	–	–	–	–	–	–	–	–	–
C/C=C1\C[C@@H](C)[C@](O)(CO)C(=O)OCC2=CCN3CC[C@@H](OC1=O)[C@@H]23 (stereo in doubt; 7) [RETRORSINE]	–	88%	46%	90%	> 50 microg/cm2	44%	> 50 microg/cm2	–	–	–	–	–	–	–
C/C=C(/C)C(=O)O[C@@H]1CC[N+]2([O-])CC=C(COC(=O)[C@@](O)([C@H](C)O)C(C)(C)O)[C@H]12 (stereo not given in full) [ECHIMIDINE N-OXIDE]	–	113%	43%	102%	> 50 microg/cm2	40%	> 50 microg/cm2	–	–	–	–	–	–	–
C/C=C1\C[C@@H](C)[C@](O)(CO)C(=O)OCC2=CCN3CC[C@@H](OC1=O)[C@@H]23 (stereo in doubt; 8)	Active	–	–	–	–	–	–	–	–	–	–	–	–	–
C[C@H]1C(=O)O[C@@H]2CCN3CC=C(COC(=O)[C@](C)(O)[C@]1(C)O)[C@H]23 [MONOCROTALINE]	Active	98%	37%	47%	> 50 microg/cm2	49%	> 50 microg/cm2	< 50%	Active	> 100 µg/mL	Active	> 100 µg/mL	Active	Active
C/C=C1\C[C@@H](C)[C@@](C)(O)C(=O)OCC2=CCN3CC[C@@H](OC1=O)[C@@H]23 [INTEGERRIMINE]	–	88%	43%	89%	3.4 microg/cm2	57%	> 100 microg/cm2	< 50%	–	> 100 µg/mL	–	> 100 µg/mL	–	–
C/C=C1/C[C@@H](C)[C@@](C)(OC(C)=O)C(=O)OC/C2=C/CN(C)CC[C@@H](OC1=O)C2=O [ACETYLSENKIRKINE]	Active	88%	42%	100%	> 50 microg/cm2	35%	> 50 microg/cm2	< 50%	Active	–	–	–	–	–
C=C1C/C(=C\C)C(=O)O[C@@H]2CCN3CC=C(COC(=O)[C@]1(C)O)[C@H]23 [SPARTIOIDINE]	–	97%	42%	90%	4.8 microg/cm2	35%	0.2 microg/cm2	< 50%	–	> 100 µg/mL	–	> 100 µg/mL	–	–
C/C=C1\C[C@@H](C)[C@](O)(CO)C(=O)OCC2=CCN3CC[C@@H](OC1=O)[C@@H]23 (stereo in doubt; 8) [RETRORSINE]	–	92%	40%	102%	–	30%	–	< 50%	–	> 100 µg/mL	–	> 100 µg/mL	–	–
C/C=C1/C[C@@H](C)[C@@](C)(O)C(=O)OCC2=CCN3CC[C@@H](OC1=O)[C@@H]23 [SENECIONINE]	–	84%	40%	84%	1.3 microg/cm2	40%	> 50 microg/cm2	< 50%	–	> 100 µg/mL	–	> 100 µg/mL	–	–
C/C=C1/C[C@@]2(CO)O[C@@]2(C)C(=O)OCC2=CCN3CC[C@@H](OC1=O)[C@@H]23 [ERUCIFOLINE]	Active	102%	43%	106%	> 50 microg/cm2	31%	> 50 microg/cm2	< 50%	–	–	–	–	–	–
C=C1C/C(=C/C)C(=O)O[C@@H]2CCN3CC=C(COC(=O)[C@]1(C)O)[C@H]23 [SENECIPHYLLINE]	–	82%	42%	87%	1.7 microg/cm2	50%	50 microg/cm2	< 50%	–	> 100 µg/mL	–	> 100 µg/mL	–	–
C=C1C(=O)O[C@@H]2CCN3CC=C(COC(=O)[C@](C)(O)[C@H](C)[C@H]1C)[C@H]23	–	98%	–	90%	> 50 microg/cm2	–	> 50 microg/cm2	< 50%	–	> 100 µg/mL	–	13.2 µg/mL (≈ 39.4 µM)	–	–
C/C=C1/C[C@@H](C)[C@](O)(CO)C(=O)OCC2=CCN3CC[C@@H](OC1=O)[C@@H]23 (stereo in doubt; 7) [RETRORSINE]	–	–	–	–	–	–	–	–	–	–	–	> 100 µg/mL	–	–
C/C=C(/C)C(=O)O[C@@H]1CCN2CC=C(COC(=O)[C@@](O)([C@H](C)O)C(C)(C)O)[C@H]12 [ECHIMIDINE]	–	165%	36%	118%	1.4 microg/cm2	40%	> 50 microg/cm2	–	–	–	–	–	–	–
C/C=C1\C[C@@H](C)[C@@](C)(O)C(=O)OC/C2=C/CN(C)CC[C@@H](OC1=O)C2=O [SENKIRKINE]	Active	105%	53%	116%	> 50 microg/cm2	35%	> 50 microg/cm2	< 50%	Active	–	–	–	Active	Active
C/C=C1\C[C@@H](C)[C@](O)(COC(C)=O)C(=O)OCC2=CCN3CC[C@@H](OC1=O)[C@@H]23 [ACETYLUSARAMINE]	Active	106%	–	60%	–	40%	–	< 50%	–	> 100 µg/mL	–	> 100 µg/mL	–	–
